Data as given in patent publication US11612595B2, “Compositions and methods for treating rheumatoid arthritis” (Generos Biopharma Ltd., priority 2017, dated 2023).

What was measured:
[1] = weight changes in mouse CIA model; format: in vivo, DBA/1J mice; conditions: 5 mg/kg i.p. daily
Procedure: FIGS. 7A and 78 show graphs depicting weight changes in five groups of mouse CIA models under different treatment schemes. DBA/1 mice were randomly divided into 9 groups with 10 mice each group. On day 0 and 21, all of them except blank control group were inoculated with 50 ul collagen plus CFA mixture subcutaneously at back flank near tail. The weights of all 90 mice were monitored 3 times a week throughout the experiment.
(§1) Eight of nine groups (10 mice in each group) of male DBA/1J mice (age 9-10 weeks. H-2q haplotype) were subject to CIA model induction and then to different treatment schemes. The group of mice without CIA model induction was used as a control (Blank). Specifically, Bovine type II collagen (Chondrex) was mixed with Freund's complete adjuvant (CFA) (Sigma) and injected s.c. to flank near tail of the mice twice (the second injection was made 21 days after the first injection) to create CIA model mice. The eight groups of CIA model mice were separated into four prophylactic groups and four therapeutic groups, with each group subjected to different treatments.
(§2) In the four prophylactic groups, daily treatments started from the date when the first CIA induction injection was made. The first of the four prophylactic groups of CIA model mice were treated with 30% PEG300 (containing 4% DMSO-all 30% PEG300 in the application contains 4% DMSO) solution via intraperitoneal injection as controls (Model). The second of the four prophylactic groups of CIA model mice were treated with nicotinohydrazide (Calbiochem) 10 mg/kg in 30% PEG300 solution via intraperitoneal injection (573108 10 mg/kg). The third of the four prophylactic groups of CIA model mice were treated with nicotinohydrazide (Calbiochem) 5 mg/kg in 30% PEG300 solution via intraperitoneal injection (573108 5 mg/kg). The last of the four prophylactic groups of CIA model mice were treated with Tofacitinib (Selleckchem) 5 mg/kg in 30% PEG300 solution via intraperitoneal injection (Tofacitinib 5 mg/kg).
(§3) In the four therapeutic groups, daily treatments started from the date when the second CIA induction injection was made. The first of the four therapeutic groups of CIA model mice were treated with 30% PEG300 solution via intraperitoneal injection as controls (Model). The second of the four therapeutic groups of CIA model mice were treated with nicotinohydrazide (Calbiochem) 10 mg/kg in 30% PEG300 solution via intraperitoncal injection (573108 10 mg/kg). The third of the four therapeutic groups of CIA model mice were treated with nicotinohydrazide (Calbiochem) 5 mg/kg in 30% PEG300 solution via intraperitoneal injection (573108 5 mg/kg). The last of the four therapeutic groups of CIA model mice were treated with Tofacitinib (Selleckchem) 5 mg/kg in 30% PEG300 solution via intraperitoncal injection (Tofacitinib 5 mg/kg).
(§4) The inventors collected data of the weight, and clinical scores of the mice every 2-3 days and performed statistic analysis. The method used in the statistic analysis was Student's t test, unpaired, two-tailed analysis.

[2] = tested on: collagen-induced arthritis (CIA) model mice; test: collagen-induced arthritis (CIA) model mice, clinical scores; format: in vivo, DBA/1J mice; parameters: key to Pairwise analysis of the difference between groups (clinical scores), vs Model / Pairwise analysis of the difference between groups (clinical scores), S5i 5 mpk vs S5i 10 mpk: p values from pairwise comparisons; conditions: for clinical scores compared to Model: 5 mg/kg i.p. daily; for Pairwise analysis of the difference between groups (clinical scores), vs Model: 5 mpk
Source text: FIGS. 8A and 8B show graphs depicting clinical score changes in four groups of CIA mouse models under different treatment schemes. In FIG. 8A, different chemicals (DMSO as control for Model group, blank group is left untreated) were daily administered intraperitoneally at the indicated doses from the first injection of the collagen agent. In FIG. 8B, different chemicals were daily administered intraperitoneally from the second injection of collagen agent at the indicated doses. Clinical scores were given double-blindly according to the scoring scheme every 2 days.
FIGS. 9A and 9B show graphs of clinical scores at day 44 for each group, the overall difference analyzed by ANOVA is significant p<0.0001, while the p value between Model and each individual group is labeled above the bar * p<0.05, ** p<0.01.
as §1, §2, §3, §4
The clinical scores were derived according to the scheme in Table 2.

trend of weight changes, p vs Model ([1]; prophylactic groups): 0.0130
trend of weight changes, p vs Model ([1]; therapeutic groups): 0.0005
Structure (SMILES): C[C@@H]1CCN(C(=O)CC#N)C[C@@H]1N(C)c1ncnc2[nH]ccc12 [Tofacitinib]
clinical scores compared to Model ([2]; prophylactic groups): reduced clinical scores
Pairwise analysis of the difference between groups (clinical scores), vs Model ([2]; prophylactic groups, Day 28): 0.0949
Pairwise analysis of the difference between groups (clinical scores), vs Model ([2]; prophylactic groups, Day 30): 0.0496
Pairwise analysis of the difference between groups (clinical scores), vs Model ([2]; prophylactic groups, Day 32): 0.0610
Pairwise analysis of the difference between groups (clinical scores), vs Model ([2]; prophylactic groups, Day 35): 0.0064
Pairwise analysis of the difference between groups (clinical scores), vs Model ([2]; prophylactic groups, Day 37): 0.0178
Pairwise analysis of the difference between groups (clinical scores), vs Model ([2]; prophylactic groups, Day 39): 0.0010
Pairwise analysis of the difference between groups (clinical scores), vs Model ([2]; prophylactic groups, Day 42): 0.0015
Pairwise analysis of the difference between groups (clinical scores), vs Model ([2]; prophylactic groups, Day 44): 0.0026
clinical scores compared to Model ([2]; therapeutic groups): reduced clinical scores
Pairwise analysis of the difference between groups (clinical scores), vs Model ([2]; therapeutic groups, Day 28): 0.0258
Pairwise analysis of the difference between groups (clinical scores), vs Model ([2]; therapeutic groups, Day 30): 0.0471
Pairwise analysis of the difference between groups (clinical scores), vs Model ([2]; therapeutic groups, Day 32): 0.0138
Pairwise analysis of the difference between groups (clinical scores), vs Model ([2]; therapeutic groups, Day 35): 0.0163
Pairwise analysis of the difference between groups (clinical scores), vs Model ([2]; therapeutic groups, Day 37): 0.0170
Pairwise analysis of the difference between groups (clinical scores), vs Model ([2]; therapeutic groups, Day 39): 0.0153
Pairwise analysis of the difference between groups (clinical scores), vs Model ([2]; therapeutic groups, Day 42): 0.0081
Pairwise analysis of the difference between groups (clinical scores), vs Model ([2]; therapeutic groups, Day 44): 0.0044
